Here are results for 42 compounds from patent US20130102595A1 (Curis, Inc., priority 2011, published 2013).

The subject of test [1] is HDACs (HeLa cell nuclear extracts). In words: HDAC enzymatic activity, Biomol Color de Lys system. Format: biochemical. The conditions noted are these: 1 hour, 25° C. On the procedure:
(E) an In Vitro Assay which Determines the Ability of a Test Compound to Inhibit HDAC Enzymatic Activity.
HDAC inhibitory activity was assessed using the Biomol Color de Lys system (AK-500, Biomol, Plymouth Meeting, Pa.). Briefly, HeLa cell nuclear extracts were used as a source of HDACs. Different concentrations of test compounds were serially diluted in dimethylsulphoxide (DMSO) and added to HeLa cell nuclear extracts in the presence of a colorimetric artificial substrate. Final assay condition contained 50 mM Tris/Cl, pH 8.0, 137 mM NaCl, 2.7 mM KCl and 1 mM MgCl2. Reactions were carried in room temperature (25° C.) for 1 hour before addition of developer for termination. Relative enzyme activity was measured in the WALLAC Victor II 1420 microplate reader as fluorescence intensity (excitation: 350-380 nm; emission: 440-460 nm). Data were analyzed using GraphPad Prism (v4.0a) with a sigmoidal dose response curve fitting for IC50 calculation.

For another test, the target named is T1, PI3Kα (p110α/p85α) (Homo sapiens, UniProt P42336).
T1 construct: GST (N); made in house; host or cells: Baculovirus-infected Sf9 cells
In words: PI3Kα ADP-Glo assay. The settings on record: 20 μM PIP2, 10 μM ATP, 30 minutes. Format: biochemical. On the procedure: (A) an In Vitro Assay which Determines the Ability of a Test Compound to Inhibit PI3Kα.
Activity of PI3Kα was measured using ADP-Glo assay from Promega. PI3Kα, a complex of N-terminal GST-tagged recombinant full-length human p110α (GenBank, Accession No. U79143) and N-terminal His tagged recombinant full length human p85a (GenBank Accession No. XM—043865) were co-expressed in a Baculovirus infected Sf9 cell expression system. The ADP-Glo assay was performed to measure the amount of ADP generated from ATP hydrolysis coupled with PIP2 phosphorylation by the purified recombinant PI3Kα (p110α/p85α). PI3Kα was incubated with 20 μM PIP2 substrate in the reaction buffer (50 mM HEPES, pH 7.4, 150 mM NaCl, 5 mM MgCl2, 1 mM DTT, 3 uM Naorthovanadate, 10 μM ATP and 0.5% DMSO) for 30 minutes at room temperature. The ADP generated was then detected by ADP-Glo assay from Promega, a luminescent ADP detection assay. The ADP-Glo assay is performed in two steps; first, after the kinase reaction, ADP-Glo Reagent is added to terminate the kinase reaction and deplete the remaining ATP. Second, the Kinase Detection Reagent is added to simultaneously convert ADP to ATP and allow the newly synthesized ATP to be measured using a luciferase/luciferin reaction.

A value given as a limit tells only on which side of the number the result lay.

T1 sequence (P42336 whole entry): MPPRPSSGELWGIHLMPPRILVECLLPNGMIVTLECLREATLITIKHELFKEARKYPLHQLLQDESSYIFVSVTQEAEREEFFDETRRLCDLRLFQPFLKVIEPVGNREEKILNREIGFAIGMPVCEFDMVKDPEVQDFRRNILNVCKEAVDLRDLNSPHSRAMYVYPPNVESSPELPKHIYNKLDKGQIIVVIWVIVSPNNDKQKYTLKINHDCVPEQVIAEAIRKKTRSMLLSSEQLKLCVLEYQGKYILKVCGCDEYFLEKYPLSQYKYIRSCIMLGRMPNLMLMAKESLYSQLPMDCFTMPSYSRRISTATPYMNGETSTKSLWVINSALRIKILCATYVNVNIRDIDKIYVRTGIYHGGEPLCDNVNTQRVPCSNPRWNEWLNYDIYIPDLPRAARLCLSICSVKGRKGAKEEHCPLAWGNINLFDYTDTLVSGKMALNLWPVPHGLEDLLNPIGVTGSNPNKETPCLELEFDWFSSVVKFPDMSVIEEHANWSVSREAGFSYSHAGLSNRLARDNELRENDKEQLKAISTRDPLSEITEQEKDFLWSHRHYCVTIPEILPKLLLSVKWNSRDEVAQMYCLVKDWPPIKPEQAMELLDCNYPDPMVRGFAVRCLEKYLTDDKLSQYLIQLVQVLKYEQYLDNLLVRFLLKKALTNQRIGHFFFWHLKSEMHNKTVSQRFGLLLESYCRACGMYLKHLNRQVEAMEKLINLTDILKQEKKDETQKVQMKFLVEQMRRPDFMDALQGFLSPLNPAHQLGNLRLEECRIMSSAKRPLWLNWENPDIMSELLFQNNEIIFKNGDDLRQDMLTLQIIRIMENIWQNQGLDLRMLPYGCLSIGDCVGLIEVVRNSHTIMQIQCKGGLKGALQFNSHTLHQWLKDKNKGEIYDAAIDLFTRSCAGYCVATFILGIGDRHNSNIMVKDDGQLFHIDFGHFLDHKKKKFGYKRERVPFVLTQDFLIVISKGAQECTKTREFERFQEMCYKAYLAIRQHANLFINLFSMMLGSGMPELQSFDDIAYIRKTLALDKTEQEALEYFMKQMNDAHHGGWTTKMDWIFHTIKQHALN
T1 sequence (P27986 whole entry partner): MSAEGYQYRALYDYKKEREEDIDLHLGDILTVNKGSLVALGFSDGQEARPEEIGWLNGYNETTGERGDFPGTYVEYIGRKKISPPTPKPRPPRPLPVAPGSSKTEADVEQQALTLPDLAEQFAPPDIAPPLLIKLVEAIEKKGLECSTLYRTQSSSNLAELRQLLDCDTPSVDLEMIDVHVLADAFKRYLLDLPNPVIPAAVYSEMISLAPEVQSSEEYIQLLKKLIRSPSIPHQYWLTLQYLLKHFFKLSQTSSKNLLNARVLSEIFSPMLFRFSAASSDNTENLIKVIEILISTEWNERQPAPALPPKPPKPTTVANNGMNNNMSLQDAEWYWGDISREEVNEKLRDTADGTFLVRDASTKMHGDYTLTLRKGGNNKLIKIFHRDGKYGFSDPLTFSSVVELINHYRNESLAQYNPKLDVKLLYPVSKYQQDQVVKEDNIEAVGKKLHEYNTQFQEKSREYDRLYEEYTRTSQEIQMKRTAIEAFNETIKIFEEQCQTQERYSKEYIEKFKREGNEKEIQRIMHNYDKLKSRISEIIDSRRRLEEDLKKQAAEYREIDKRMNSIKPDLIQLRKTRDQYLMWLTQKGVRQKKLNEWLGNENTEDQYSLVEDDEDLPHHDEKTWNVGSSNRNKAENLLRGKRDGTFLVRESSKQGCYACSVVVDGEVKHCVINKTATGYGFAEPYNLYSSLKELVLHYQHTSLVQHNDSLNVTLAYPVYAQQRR

As usually defined, the IC50 is the concentration that inhibits the measured activity by half. Low values mean greater potency in that assay, high ones weaker potency in that assay. With `CS(=O)(=O)N1CCN(Cc2cc3nc(-c4cccc5c4cnn5CCCCCCC(=O)NO)nc(N4CCOCC4)c3s2)CC1` [Compound 5, N-hydroxy-7-(4-(6-((4-(methylsulfonyl)piperazin-1-yl)methyl)-4-morpholinothieno[3,2-d]pyrimidin-2-yl)-1H-indazol-1-yl)heptanamide], the results for the half-maximal inhibitory concentration (IC50) (in test [1]; against PI3Kα (p110α/p85α)) were under 100 nM and over 10000 nM, respectively.

With `O=C(CCCCNc1cc2nc(-c3cccc4[nH]ncc34)nc(N3CCOCC3)c2s1)NO` [Compound 18], the IC50 in test [1] is under 100 nM; against PI3Kα (p110α/p85α), 100 to 1000 nM.

On to `O=C(CCCCCNc1cc2nc(-c3cccc4[nH]ncc34)nc(N3CCOCC3)c2s1)NO` [Compound 19], for which the IC50 is under 100 nM in test [1] and 100 to 1000 nM at PI3Kα (p110α/p85α).

In the case of `O=C(CCCCCCNc1cc2nc(-c3cccc4[nH]ncc34)nc(N3CCOCC3)c2s1)NO` [Compound 20], the IC50 in test [1] was under 100 nM; on PI3Kα (p110α/p85α), 100 to 1000 nM.

Take `CS(=O)(=O)N1CCN(Cc2cc3nc(-c4cccc5[nH]ncc45)nc(NCCCCC(=O)NO)c3s2)CC1` [Compound 34]: the IC50 on PI3Kα (p110α/p85α) was over 10000 nM.

For the compound `CS(=O)(=O)N1CCN(Cc2cc3nc(-c4cccc5[nH]ncc45)nc(NCCCCCC(=O)NO)c3s2)CC1` [Compound 35], the IC50 on PI3Kα (p110α/p85α) was over 10000 nM.

With `CS(=O)(=O)N1CCN(Cc2cc3nc(-c4cccc5[nH]ncc45)nc(NCCCCCCC(=O)NO)c3s2)CC1` [Compound 36], the IC50 at PI3Kα (p110α/p85α) was over 10000 nM.

On to `O=C(NO)c1cc2nc(-c3cccc4[nH]ncc34)nc(N3CCOCC3)c2s1` [Compound 45], for which the IC50 in test [1] is over 10000 nM; at PI3Kα (p110α/p85α), under 100 nM.

For `O=C(/C=C/c1cc2nc(-c3cccc4[nH]ncc34)nc(N3CCOCC3)c2s1)NO` [Compound 46], the IC50 in test [1] lay in the range of 1000 to 10000 nM; at PI3Kα (p110α/p85α), 100 to 1000 nM.

In the case of `O=C(NO)c1cnc(N2CCC(CNc3cc4nc(-c5cccc6[nH]ncc56)nc(N5CCOCC5)c4s3)CC2)nc1` [Compound 48], the IC50 (in test [1]; against PI3Kα (p110α/p85α)) was under 100 nM each time.

With `CN(CC1CCN(c2ncc(C(=O)NO)cn2)CC1)c1cc2nc(-c3cccc4[nH]ncc34)nc(N3CCOCC3)c2s1` [Compound 49], the figures for the IC50 (in test [1]; against PI3Kα (p110α/p85α)) were 100 to 1000 nM and under 100 nM, respectively.

With `O=C(/C=C/c1ccc(S(=O)(=O)Nc2cc3nc(-c4cccc5[nH]ncc45)nc(N4CCOCC4)c3s2)cc1)NO` [Compound 50], the IC50 (in test [1]; at PI3Kα (p110α/p85α)) was under 100 nM throughout.

Regarding `O=C(NO)c1cnc(N2CCN(S(=O)(=O)c3cc4nc(-c5cccc6[nH]ncc56)nc(N5CCOCC5)c4s3)CC2)nc1` [Compound 51], the figures for the IC50 (in test [1]; on PI3Kα (p110α/p85α)) were 100 to 1000 nM and under 100 nM, respectively.

For `CN(Cc1cc2nc(-c3cccc4[nH]ncc34)nc(N3CCNCC3)c2s1)c1ncc(C(=O)NO)cn1` [Compound 60], the IC50 in test [1] was under 100 nM; on PI3Kα (p110α/p85α) it was over 10000 nM.

Consider `CN1CCN(c2nc(-c3cccc4[nH]ncc34)nc3cc(CN(C)c4ncc(C(=O)NO)cn4)sc23)CC1` [Compound 61], for which the IC50 in test [1] was under 100 nM; at PI3Kα (p110α/p85α), over 10000 nM.

On to `CC(=O)N1CCN(c2nc(-c3cccc4[nH]ncc34)nc3cc(CN(C)c4ncc(C(=O)NO)cn4)sc23)CC1` [Compound 62], for which the IC50 in test [1] was under 100 nM; at PI3Kα (p110α/p85α), over 10000 nM.

In the case of `CN(Cc1cc2nc(-c3cccc4[nH]ncc34)nc(N3CCN(CCO)CC3)c2s1)c1ncc(C(=O)NO)cn1` [Compound 63], the figures for the 50% inhibitory concentration (IC50) (in test [1]; on PI3Kα (p110α/p85α)) were under 100 nM and over 10000 nM, respectively.

For the compound `CC1CN(c2nc(-c3cccc4[nH]ncc34)nc3cc(CN(C)c4ncc(C(=O)NO)cn4)sc23)CC(C)O1` (centres unmarked) [Compound 65], the results for the IC50 (in test [1]; at PI3Kα (p110α/p85α)) were under 100 nM and 100 to 1000 nM, respectively.

`CC1COCC(C)N1c1nc(-c2cccc3[nH]ncc23)nc2cc(CN(C)c3ncc(C(=O)NO)cn3)sc12` (centres unmarked) [Compound 66]: the IC50 in test [1] was under 100 nM; against PI3Kα (p110α/p85α) it was 100 to 1000 nM.

For the compound `CN(Cc1cc2nc(-c3cccc4[nH]ncc34)nc(N3CCCCC3)c2s1)c1ncc(C(=O)NO)cn1` [Compound 67], the values for the IC50 (in test [1]; against PI3Kα (p110α/p85α)) were under 100 nM and 100 to 1000 nM, respectively.

Regarding `Cc1c(CN(C)c2ncc(C(=O)NO)cn2)sc2c(N3CCOCC3)nc(-c3cccc4[nH]ncc34)nc12` [Compound 68], the IC50 is under 100 nM in test [1] and 100 to 1000 nM against PI3Kα (p110α/p85α).

As for `CC(C)(Nc1ncc(C(=O)NO)cn1)c1cc2nc(-c3cccc4[nH]ncc34)nc(N3CCOCC3)c2s1` [Compound 71], the IC50 was under 100 nM in test [1] and 100 to 1000 nM on PI3Kα (p110α/p85α).

For the compound `O=C(NO)c1cnc(NCc2cc3cc(-c4cccc5[nH]ncc45)nc(N4CCOCC4)c3s2)nc1` [Compound 73], the concentration for half-maximal inhibition (IC50) is under 100 nM in test [1] and 100 to 1000 nM on PI3Kα (p110α/p85α).

Regarding `CN(Cc1cc2cc(-c3cccc4[nH]ncc34)nc(N3CCOCC3)c2s1)c1ncc(C(=O)NO)cn1` [Compound 74], the IC50 in test [1] was under 100 nM; against PI3Kα (p110α/p85α), 100 to 1000 nM.

For `CN(Cc1cc2nc(-c3cccc4[nH]ncc34)nc(N3CCOCC3)c2s1)c1ncc(/C=C/C(=O)NO)cn1` [Compound 75], the IC50 in test [1] is 100 to 1000 nM; on PI3Kα (p110α/p85α), under 100 nM.

With `CN(Cc1cc2nc(-c3cccc4[nH]ncc34)nc(N3CCOCC3)c2s1)c1ccc(C(=O)NO)cc1` [Compound 79], the IC50 (in test [1]; against PI3Kα (p110α/p85α)) was under 100 nM throughout.

For the compound `O=C(O)CN(Cc1cc2nc(-c3cccc4[nH]ncc34)nc(N3CCOCC3)c2s1)c1ncc(C(=O)NO)cn1` [Compound 88], the IC50 was 100 to 1000 nM in test [1] and under 100 nM against PI3Kα (p110α/p85α).

Regarding `COCCN(Cc1cc2nc(-c3cccc4[nH]ncc34)nc(N3CCOCC3)c2s1)c1ncc(C(=O)NO)cn1` [Compound 90, 2-(((2-(1H-indazol-4-yl)-4-morpholinothieno[3,2-d]pyrimidin-6-yl)methyl)(2-methoxyethyl)amino)-N-hydroxypyrimidine-5-carboxamide], the IC50 (in test [1]; against PI3Kα (p110α/p85α)) was under 100 nM in each case.

On to `O=C(NO)c1cnc(N(CCCO)Cc2cc3nc(-c4cccc5[nH]ncc45)nc(N4CCOCC4)c3s2)nc1` [Compound 91], for which the IC50 (in test [1]; against PI3Kα (p110α/p85α)) was under 100 nM each time.

Consider `CCN(Cc1cc2nc(-c3cccc4[nH]ncc34)nc(N3CCOCC3)c2s1)c1ncc(C(=O)NO)cn1` [Compound 92], for which the IC50 (in test [1]; on PI3Kα (p110α/p85α)) was under 100 nM each time.

In the case of `NCCN(Cc1cc2nc(-c3cccc4[nH]ncc34)nc(N3CCOCC3)c2s1)c1ncc(C(=O)NO)cn1` [Compound 94], the half-inhibitory concentration (IC50) (in test [1]; against PI3Kα (p110α/p85α)) was under 100 nM throughout.

As for `CN(C)CCN(Cc1cc2nc(-c3cccc4[nH]ncc34)nc(N3CCOCC3)c2s1)c1ncc(C(=O)NO)cn1` [Compound 95], the figures for the IC50 (in test [1]; on PI3Kα (p110α/p85α)) were 100 to 1000 nM and under 100 nM, respectively.

Turning to `CC(=O)NCCN(Cc1cc2nc(-c3cccc4[nH]ncc34)nc(N3CCOCC3)c2s1)c1ncc(C(=O)NO)cn1` [Compound 96], the IC50 (in test [1]; at PI3Kα (p110α/p85α)) was under 100 nM each time.

In the case of `NC(=O)CN(Cc1cc2nc(-c3cccc4[nH]ncc34)nc(N3CCOCC3)c2s1)c1ncc(C(=O)NO)cn1` [Compound 97], the IC50 (in test [1]; on PI3Kα (p110α/p85α)) was under 100 nM in each case.

Consider `C#CCCN(Cc1cc2nc(-c3cccc4[nH]ncc34)nc(N3CCOCC3)c2s1)c1ncc(C(=O)NO)cn1` [Compound 98], for which the IC50 (in test [1]; against PI3Kα (p110α/p85α)) was under 100 nM in each case.

As to `O=C(NO)c1ccc2c(ccn2Cc2cc3nc(-c4cccc5[nH]ncc45)nc(N4CCOCC4)c3s2)c1` [Compound 105], the results for the IC50 (in test [1]; against PI3Kα (p110α/p85α)) were 100 to 1000 nM and over 10000 nM, respectively.

In the case of `Cn1cc(CNc2cc3nc(-c4cccc5[nH]ncc45)nc(N4CCOCC4)c3s2)c2cc(C(=O)NO)ccc21` [Compound 106], the IC50 in test [1] was 1000 to 10000 nM; on PI3Kα (p110α/p85α) it was under 100 nM.

As for `CN(Cc1cc2nc(-c3cnc(C(N)=O)nc3)nc(N3CCOCC3)c2s1)c1ncc(C(=O)NO)cn1` [Compound 122], the IC50 (in test [1]; against PI3Kα (p110α/p85α)) was under 100 nM in each case.

Compound `CN(Cc1cc2nc(-c3ccc4c(c3)OCCN4)nc(N3CCOCC3)c2s1)c1ncc(C(=O)NO)cn1` [Compound 191] gave an IC50 in test [1] of under 100 nM.

As for `CC(c1cc2nc(-c3ccc(N)cc3)nc(N3CCOCC3)c2s1)N(C)c1ncc(C(=O)NO)cn1` (centres unmarked) [Compound 214], the IC50 in test [1] was under 100 nM.

Compound `CN(c1ncc(C(=O)NO)cn1)C(C)(C)c1cc2nc(-c3ccc(N)cc3)nc(N3CCOCC3)c2s1` [Compound 270] displayed a concentration for half-maximal inhibition (IC50) in test [1] of under 100 nM.

Regarding `CN(Cc1cc2nc(-c3cccc4[nH]c(=O)[nH]c34)nc(N3CCOCC3)c2s1)c1ncc(C(=O)NO)cn1` [Compound 316], the IC50 at PI3Kα (p110α/p85α) is under 100 nM.
